Test results published in US20090221559A1 (priority 2005, published 2009).
Where two headings read alike, the source gives them in different places.

Tests used:
[1] = tested on: HCV replicon RNA replication in Huh-7 luc/neo (Huh-Luc) cells; assay: HCV replicon assay (stable replicon cell reporter assay, luciferase read-out); type: cell-based, HCV type 1b
How it was run: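 Three-day compound exposure used Huh-Luc cells, which harbour an autonomously replicating genotype 1b NS3-NS5B replicon expressing luciferase and neo^R. Luciferase signal served as the replication read-out, and dose-response curves came from several concentrations per compound.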

[2] = biological target: T1, HCV NS5B polymerase (His-tagged, C-terminal 21 amino acid deleted NS5B, HC-J4) (Hepatitis C virus genotype 1b, UniProt O92972); assay: NS5b polymerase assay (biochemical RdRp assay, 3H-GTP incorporation, SPA beads); design: species or system HCV genotype 1b; conditions: 3H-GTP incorporation, 2 h at 25° C.
T1 construct: The cDNA encoding NS5B amino acid 1-570 (HC-J4, genotype 1b); His tag (His6, from pET-21b) (C); made in house; host or cells: E. coli BL21 (DE3)
How it was run: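 3H-GTP incorporation into newly made RNA was captured on SPA beads added in EDTA after 2 h at 25 °C. Compounds in DMSO met preformed enzyme–template complex (200 nM truncated His-NS5B, HC-J4 1b; biotin-oligo(rG13)/poly(rC)) for 15 min at RT, then 600 nM GTP, 5 mM MgCl2, Tris pH 7.5 started polymerization.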

[3] = Hepatitis C virus, Huh-7, 72 h, read-out: Replicon Assay EC50, Huh-Luc cells, three days incubation, luciferase activity
[4] = NS5B Polymerase Assay IC50, 200 nM enzyme

T1 sequence (O92972 2417-3000, looked up, stated change not applied): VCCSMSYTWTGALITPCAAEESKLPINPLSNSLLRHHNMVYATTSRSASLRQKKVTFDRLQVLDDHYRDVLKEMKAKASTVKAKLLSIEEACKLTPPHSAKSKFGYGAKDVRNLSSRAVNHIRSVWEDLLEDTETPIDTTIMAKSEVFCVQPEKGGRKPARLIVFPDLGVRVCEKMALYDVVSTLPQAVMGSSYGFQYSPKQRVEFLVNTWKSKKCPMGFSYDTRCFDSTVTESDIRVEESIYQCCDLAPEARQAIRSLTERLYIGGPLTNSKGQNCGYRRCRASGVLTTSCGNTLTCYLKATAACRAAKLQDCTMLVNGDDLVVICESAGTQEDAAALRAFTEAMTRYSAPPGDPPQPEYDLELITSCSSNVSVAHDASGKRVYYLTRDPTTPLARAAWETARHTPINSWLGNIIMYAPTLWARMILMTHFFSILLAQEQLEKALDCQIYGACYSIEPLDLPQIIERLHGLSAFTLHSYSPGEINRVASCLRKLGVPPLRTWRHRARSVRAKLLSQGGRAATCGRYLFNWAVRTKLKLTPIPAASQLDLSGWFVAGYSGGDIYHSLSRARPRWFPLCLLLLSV

Structure (SMILES)	EC50 [1, 3] [µM]	IC50 [2, 4] [µM]	EC50 ([1]; Huh-Luc cells, three days incubation, luciferase activity, read-out: Replicon Assay EC50) [µM]	IC50 ([2]; 200 nM enzyme, read-out: NS5B Polymerase Assay IC50) [µM]
CC1(C)CC(=O)C2=C(C1)Nc1ccccc1N(C(=O)c1ccccc1)C2c1ccccc1F (centres unmarked) [compound 94]	3.4	> 42.7		
COc1ccc(OC)c(C2C3=C(CC(C)(C)CC3=O)Nc3ccccc3N2C(=O)C(F)(F)F)c1Br (centres unmarked) [compound 96]	11.4	> 42.7		
CCCCC(CC)C(=O)N1c2ccccc2NC2=C(C(=O)CC(C)(C)C2)C1c1ccc(OCCC)c(OC)c1 (centres unmarked) [compound 98]	7.33	> 42.7		
CC(C)C(=O)N1c2ccccc2NC2=C(C(=O)CC(C)(C)C2)C1c1ccc(OCc2ccccc2)cc1 (centres unmarked) [compound 99]	3.69	> 42.7		
CC(C)Oc1ccc(C2C3=C(CC(C)(C)CC3=O)Nc3ccccc3N2C(=O)C(F)(F)F)cc1 (centres unmarked) [compound 100]	3.6	> 42.7		
CCCCCOc1ccc(C2C3=C(CC(C)(C)CC3=O)Nc3ccccc3N2C(C)=O)cc1 (centres unmarked) [compound 102]	> 32	> 42.7		
CC(=O)N1c2ccccc2NC2=C(C(=O)CC(C)(C)C2)C1c1cccc([N+](=O)[O-])c1 (centres unmarked) [compound 103]	> 32	> 42.7		
CC(=O)N1c2ccccc2NC2=C(C(=O)CC(C)(C)C2)C1c1cccc(F)c1 (centres unmarked) [compound 104]	> 32	> 42.7		
COc1cccc(C2C3=C(CC(C)(C)CC3=O)Nc3ccccc3N2C(C)=O)c1 (centres unmarked) [compound 105]	> 32	> 42.7		
COc1ccc(C2C3=C(CC(C)(C)CC3=O)Nc3ccccc3N2C(=O)C(F)(F)F)cc1OC (centres unmarked) [compound 106]	> 32	> 42.7		
CN(C)c1ccc(C2C3=C(CC(C)(C)CC3=O)Nc3ccccc3N2C(=O)C(F)(F)F)cc1 (centres unmarked) [compound 108]	> 32	> 42.7		
CCN(CC)c1ccc(C2C3=C(CC(C)(C)CC3=O)Nc3ccccc3N2C(=O)C(F)(F)F)cc1 (centres unmarked) [compound 109]	> 32	> 42.7		
COc1ccc(C2C3=C(CC(C)(C)CC3=O)Nc3ccccc3N2C(=O)C(F)(F)F)cc1 (centres unmarked) [compound 110]	8.11	> 42.7		
CC(=O)N1c2ccccc2NC2=C(C(=O)CC(C)(C)C2)C1c1ccc(Cl)cc1 (centres unmarked) [compound 111]	> 32	> 42.7		
CC(=O)N1c2ccccc2NC2=C(C(=O)CC(C)(C)C2)C1c1ccccc1Cl (centres unmarked) [compound 112]	> 32	> 42.7		
CC1(C)CC(=O)C2=C(C1)Nc1ccccc1N(C(=O)c1ccc(F)cc1)C2c1ccc(Br)cc1 (centres unmarked) [compound 113]	> 32	> 42.7		
CC(=O)N1c2ccccc2NC2=C(C(=O)CC(C)(C)C2)C1c1ccc(OC(C)C)cc1 (centres unmarked) [compound 114]	> 32	> 42.7		
CCCCOc1ccc(C2C3=C(CC(C)(C)CC3=O)Nc3ccccc3N2C(=O)C(F)(F)F)cc1 (centres unmarked) [compound 115]	14.4	> 42.7		
COc1c(Cl)cc(Cl)cc1C1C2=C(CC(C)(C)CC2=O)Nc2ccccc2N1C(=O)C(F)(F)F (centres unmarked) [compound 116]	> 32	> 42.7		
CC(=O)N1c2ccccc2NC2=C(C(=O)CC(C)(C)C2)C1c1cccc(O)c1 (centres unmarked) [compound 117]	> 32	> 42.7		
COc1ccc(OC)c(C2C3=C(CC(C)(C)CC3=O)Nc3ccccc3N2C(C)=O)c1 (centres unmarked) [compound 118]	> 32	> 42.7		
COc1ccc(C2C3=C(CC(C)(C)CC3=O)Nc3ccccc3N2C(C)=O)cc1OC (centres unmarked) [compound 119]	> 32	> 42.7		
CCOc1cc(C2C3=C(CC(C)(C)CC3=O)Nc3ccccc3N2C(C)=O)ccc1O (centres unmarked) [compound 121]	> 32	> 42.7		

Structure (SMILES)	EC50 [1, 3] [µM]	IC50 [2, 4] [µM]	EC50 ([1]; Huh-Luc cells, three days incubation, luciferase activity, read-out: Replicon Assay EC50) [µM]	IC50 ([2]; 200 nM enzyme, read-out: NS5B Polymerase Assay IC50) [µM]
CC(=O)N1c2ccccc2NC2=C(C(=O)CC(C)(C)C2)C1c1ccc(N(C)C)cc1 (centres unmarked) [compound 122]	> 32	> 42.7		
CCCOc1cccc(C2C3=C(CC(C)(C)CC3=O)Nc3ccccc3N2C(C)=O)c1 (centres unmarked) [compound 123]	> 32	> 42.7		
COc1cc(C2C3=C(CC(C)(C)CC3=O)Nc3ccccc3N2C(C)=O)ccc1OCc1ccccc1 (centres unmarked) [compound 124]			28.9	8.56
CCOc1ccccc1C1C2=C(CC(C)(C)CC2=O)Nc2ccccc2N1C(C)=O (centres unmarked) [compound 125]	> 32	> 42.7		
CC(=O)N1c2ccccc2NC2=C(C(=O)CC(C)(C)C2)C1c1cccc(Cl)c1 (centres unmarked) [compound 126]	> 32	> 42.7		
CCCCOc1ccc(C2C3=C(CC(C)(C)CC3=O)Nc3ccccc3N2C(C)=O)cc1 (centres unmarked) [compound 127]	11.5	> 42.7		
COc1ccccc1C1C2=C(CC(C)(C)CC2=O)Nc2ccccc2N1C(C)=O (centres unmarked) [compound 128]	> 32	> 42.7		
CCCOc1ccc(C2C3=C(CC(C)(C)CC3=O)Nc3ccccc3N2C(C)=O)cc1OC (centres unmarked) [compound 129]	> 32	> 42.7		
CCCOc1ccccc1C1C2=C(CC(C)(C)CC2=O)Nc2ccccc2N1C(C)=O (centres unmarked) [compound 130]	> 32	> 42.7		
CCN(CC)c1ccc(C2C3=C(CC(C)(C)CC3=O)Nc3ccccc3N2C(C)=O)cc1 (centres unmarked) [compound 131]	> 32	> 42.7		
COc1ccc(C2C3=C(CC(C)(C)CC3=O)Nc3ccccc3N2C(C)=O)c(OC)c1 (centres unmarked) [compound 132]	12.8	> 42.7		
CC(=O)N1c2ccccc2NC2=C(C(=O)CC(C)(C)C2)C1c1cc(Cl)cc(Cl)c1 (centres unmarked) [compound 133, 10-acetyl-11-[3,5-dichlorophenyl]-3,3-dimethyl-2,3,4,5,10,11-hexahydro-1H-dibenzo[b,e][1,4]diazepin-1-one]	11	> 133		
CC(=O)N1c2ccccc2NC2=C(C(=O)CC(C)(C)C2)C1c1ccc(Oc2ccccc2)cc1 (centres unmarked) [compound 134, 10-acetyl-11-(4-phenoxyphenyl)-3,3-dimethyl-2,3,4,5,10,11-hexahydro-1H-dibenzo[b,e][1,4]diazepin-1-one]	4.64	47.3		
CC(=O)N1c2ccccc2NC2=C(C(=O)CC(C)(C)C2)C1c1cccc(Oc2ccccc2)c1 (centres unmarked) [compound 135]	2.47	54.7		
CC(=O)N1c2ccccc2NC2=C(C(=O)CC(C)(C)C2)C1c1cccc(OCc2ccccc2)c1 (centres unmarked) [compound 136, 10-acetyl-11-(3-benzyloxyphenyl)-3,3-dimethyl-2,3,4,5,10,11-hexahydro-1H-dibenzo[b,e][1,4]diazepin-1-one]	9.51	> 133		
CC(=O)N1c2ccccc2NC2=C(C(=O)CC(C)(C)C2)C1c1ccc(O)cc1 (centres unmarked) [compound 137, 10-acetyl-11-(4-hydroxyphenyl)-3,3-dimethyl-2,3,4,5,10,11-hexahydro-1H-dibenzo[b,e][1,4]diazepin-1-one]	> 100	> 133		
CC(=O)N1c2ccccc2NC2=C(C(=O)CC(C)(C)C2)C1c1cc(Cl)ccc1Cl (centres unmarked) [compound 138, 10-acetyl-11-[2,5-dichlorophenyl]-3,3-dimethyl-2,3,4,5,10,11-hexahydro-1H-dibenzo[b,e][1,4]diazepin-1-one]	26.7	> 133		
CC(=O)N1c2ccccc2NC2=C(C(=O)CC(C)(C)C2)C1c1ccc(OCc2cccnc2)cc1 (centres unmarked) [compound 140, 10-acetyl-3,3-dimethyl-11-[4-(3-pyridylmethoxy)phenyl]-2,3,4,5,10,11-hexahydro-1H-dibenzo[b,e][1,4]diazepin-1-one]	7.23	19.1		
CC(=O)N1c2ccccc2NC2=C(C(=O)CC(C)(C)C2)C1c1ccc(OCc2ccccn2)cc1 (centres unmarked) [compound 141, 10-acetyl-3,3-dimethyl-11-[4-(2-pyridylmethoxy)phenyl]-2,3,4,5,10,11-hexahydro-1H-dibenzo[b,e][1,4]diazepin-1-one]	16.3	7.91		
CC(=O)N1c2ccccc2NC2=C(C(=O)CC(C)(C)C2)C1c1cc(Cl)c(OCc2ccccc2)c(Cl)c1 (centres unmarked) [compound 143, 10-acetyl-11-[4-benzyloxy-3,5-dichlorophenyl]-3,3-dimethyl-2,3,4,5,10,11-hexahydro-1H-dibenzo[b,e][1,4]diazepin-1-one]	6.3	16		
CC(=O)N1c2ccccc2NC2=C(C(=O)CC(C)(C)C2)C1c1ccc(OCc2ccccc2)cc1OCc1ccccc1 (centres unmarked) [compound 144, 10-acetyl-11-[2,4-dibenzyloxyphenyl]-3,3-dimethyl-2,3,4,5,10,11-hexahydro-1H-dibenzo[b,e][1,4]diazepin-1-one]	3.1	23		
CC(=O)N1c2ccccc2NC2=C(C(=O)CC(C)(C)C2)C1c1ccc(OCc2ccncc2)cc1 (centres unmarked) [compound 145, 10-acetyl-3,3-dimethyl-11-[4-(4-pyridylmethoxy)phenyl]-2,3,4,5,10,11-hexahydro-1H-dibenzo[b,e][1,4]diazepin-1-one]	5.92	23.1		
CC(=O)N1c2ccccc2NC2=C(C(=O)CC(C)(C)C2)C1c1ccc(F)cc1F (centres unmarked) [compound 146, 10-acetyl-11-(2,4-difluorophenyl)-3,3-dimethyl-2,3,4,5,10,11-hexahydro-1H-dibenzo[b,e][1,4]diazepin-1-one]	23.9	2.02		
